A short description of series [1]: physchem. The note with it: PAMPA. On the technique in general: PAMPA measures passive passage across an artificial lipid membrane.
Description: Passive permeability of the compound by PAMPA
The target of series [2] is Bcl-2-like protein 1 (Homo sapiens, UniProt Q07817).
Description: Inhibition of FITC-Bak-BH3 binding to Bcl-XL (unknown origin) after 1.5 hrs by fluorescence polarization assay
Series [3] addresses Apoptosis regulator Bcl-2 (Homo sapiens, UniProt P10415).
Description: Inhibition of FITC-Bak-BH3 binding to Bcl2 (unknown origin) after 1.5 hrs by fluorescence polarization assay
Series [4] has as its system NCI-H929. Description: cells. The note with it: Homo sapiens, NCI-H929, 72 h.
Series [5] can be described thus: in vitro. The note with it: human, K562 cells.
The test system of series [6] is NCI-H929.
Series [7] concerns the target Induced myeloid leukemia cell differentiation protein Mcl-1 (Homo sapiens, UniProt Q07820).
Description: Inhibition of FITC-Bak-BH3/FITC-Bim-BH3 binding to MCL1 (172 to 327 residues) (unknown origin) expressed in Escherichia coli BL21 CodonPlus (DE3) RIL after 1.5 hrs by fluorescence polarization assay
Series [8] has as its system MV4-11. Kind of series: cells. The note with it: Homo sapiens, MV4-11, 72 h.
In series [9] the test system is OPM-2. Kind of series: cells. The note with it: Homo sapiens, OPM-2, 72 h.
The nature of series [10]: cells. The note with it: Homo sapiens, ALMC1, 72 h.
The nature of series [11]: cells. The note with it: Homo sapiens, ALMC2, 72 h.

Values joined by “and” are separate entries in the source; they are usually repeats but may differ in a detail not shown here. Identical values can stand only once.

25 compounds from ChEMBL document CHEMBL4020825, “Optimization of Potent and Selective Tricyclic Indole Diazepinone Myeloid Cell Leukemia-1 Inhibitors Using Structure-Based Design” (J Med Chem, 2018) can be followed below.

Chain of Bcl-2-like protein 1 (Q07817 whole entry): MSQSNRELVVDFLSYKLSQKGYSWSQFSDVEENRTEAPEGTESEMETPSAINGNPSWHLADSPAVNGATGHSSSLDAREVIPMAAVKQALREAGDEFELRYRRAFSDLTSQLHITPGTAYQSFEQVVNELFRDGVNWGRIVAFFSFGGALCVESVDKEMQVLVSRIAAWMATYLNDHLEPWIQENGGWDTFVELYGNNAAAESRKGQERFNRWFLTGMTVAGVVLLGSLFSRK
Chain of Apoptosis regulator Bcl-2 (P10415 whole entry): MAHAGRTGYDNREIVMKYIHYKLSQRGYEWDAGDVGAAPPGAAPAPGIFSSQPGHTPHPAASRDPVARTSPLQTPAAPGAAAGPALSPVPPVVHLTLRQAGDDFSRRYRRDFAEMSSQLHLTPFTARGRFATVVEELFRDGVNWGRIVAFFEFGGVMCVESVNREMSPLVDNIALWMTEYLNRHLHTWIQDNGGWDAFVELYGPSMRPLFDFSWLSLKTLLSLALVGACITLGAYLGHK
Chain of Induced myeloid leukemia cell differentiation protein Mcl-1 (Q07820 whole entry): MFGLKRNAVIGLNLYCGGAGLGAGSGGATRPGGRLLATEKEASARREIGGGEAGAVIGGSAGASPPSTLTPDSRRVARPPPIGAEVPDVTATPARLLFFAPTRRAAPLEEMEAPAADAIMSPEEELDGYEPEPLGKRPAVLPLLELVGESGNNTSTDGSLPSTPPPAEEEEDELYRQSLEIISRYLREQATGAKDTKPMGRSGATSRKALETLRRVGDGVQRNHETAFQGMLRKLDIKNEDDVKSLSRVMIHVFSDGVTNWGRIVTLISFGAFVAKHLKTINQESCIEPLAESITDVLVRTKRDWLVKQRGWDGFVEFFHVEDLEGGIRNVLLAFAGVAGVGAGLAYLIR

Consider `Cc1cc(OCCCc2c3n(c4c(-c5c(C)nn(C)c5C)c(Cl)ccc24)CCCN(c2cccc(C(=O)O)c2)C3=O)cc(C)c1Cl`, for which, in [1], the Papp (in general, a coefficient for how fast a substance crosses the barrier) is 307 ×10⁻⁶ cm/s.

For `Cc1cc(OCCCc2c(C(=O)NCc3cc(C(=O)O)ccn3)[nH]c3c(-c4c(C)nn(C)c4C)cccc23)cc(C)c1Cl`, in series [1], the Papp is less than 1.2 ×10⁻⁶ cm/s.

As for `Cc1cc(OCCCc2c(C(=O)Nc3cncc(C(=O)O)c3)[nH]c3c(-c4c(C)nn(C)c4C)c(Cl)ccc23)cc(C)c1Cl`, the Papp in series [1] is less than 1 ×10⁻⁶ cm/s.

With `Cc1cc(OCCCc2c3n(c4c(-c5c(C)nn(C)c5C)c(Cl)ccc24)CCCN(c2cn(C)c4c(C(=O)O)cccc24)C3=O)cc(C)c1Cl`, the Ki (usually the dissociation constant of the complex between target and ligand, obtained from inhibition or displacement) worked out at 21 µM in series [2] and 0.31 µM in series [3]. It took 1 µM to inhibit growth in series [4] by half (GI50). Also, the GI50 (commonly the concentration that inhibits growth by half) at 72 h in [5] is more than 9.2 µM.

`Cc1cc(OCCCc2c3n(c4c(-c5c(C)nn(C)c5C)c(Cl)ccc24)CCCN(c2cc(C(=O)O)cc4c2OCO4)C3=O)cc(C)c1Cl`: the Ki in series [2] is more than 36 µM; in series [3] it was 0.55 µM. The same compound showed a GI50 in series [4] of 2.3 µM. In series [1], this compound came in with a Papp of 63 ×10⁻⁶ cm/s. The GI50 at 72 h in [5] was more than 12.5 µM.

For `Cc1cc(OCCCc2c3n(c4c(-c5c(C)nn(C)c5C)c(Cl)ccc24)CCCN(c2cc(C(=O)O)cc4ccn(C)c24)C3=O)cc(C)c1Cl`, the Ki in [2] was more than 36 µM; in series [3], 0.52 µM. This compound displayed a GI50 in series [4] of 6.1 µM. Also, in series [5], the GI50 at 72 h is more than 12.5 µM.

Consider `Cc1cc(OCCCc2c(C(=O)Nc3ccc(C(=O)O)o3)[nH]c3c(-c4c(C)nn(C)c4C)c(Cl)ccc23)cc(C)c1Cl`, for which, in series [1], the Papp came out at 2.3 ×10⁻⁶ cm/s.

With `Cc1cc(OCCCc2c3n(c4c(-c5c(C)nn(C)c5C)c(Cl)ccc24)CCCN(c2cn(C)c4ccc(C(=O)O)cc24)C3=O)cc(C)c1Cl`, the figures for the Ki in [2] and in series [3] were 26 µM and 0.56 µM, respectively. The concentration for 50% growth inhibition (GI50) is 0.28 µM and 0.33 µM in [6]; 0.3 µM in series [4]. In [5], this compound returned a 50% growth inhibitory concentration (GI50) at 72 h of more than 12.5 µM.

In series [7], `Cc1cc(OCCCc2c3n(c4c(-c5c(C)nn(C)c5C)cc(Cl)cc24)CCCN(c2cc(C(=O)O)c4ccn(C)c4c2)C3=O)cc(C)c1Cl` came in with a Ki of 0.094 µM. Moreover, the 50% growth inhibitory concentration (GI50) in series [4] worked out at 6 µM; in series [8], 6.2 µM; in series [9], 5.7 µM; in series [10], 6.6 µM; in series [11], 9.9 µM. The concentration for 50% growth inhibition (GI50) at 72 h in series [5] is 7.7 µM.

`Cc1cc(OCCCc2c(C(=O)NCC(=O)O)[nH]c3ccccc23)cc(C)c1Cl` yielded a Ki in series [7] of 0.62 µM.

Take `Cc1cc(OCCCc2c3n(c4c(-c5c(C)nn(C)c5C)c(Cl)ccc24)CCCN(c2cc(C(=O)O)c4ccn(C)c4c2)C3=O)cc(C)c1Cl`: the Ki in series [2] is 19 µM; in series [3], 0.58 µM. The GI50 in series [4] was 1.4 to 1.6 µM; in [8], 0.77 µM; in [9], 1.4 µM; in [10], 1.5 µM; in [11], 3.2 µM. Further, the Papp in series [1] came to 21 ×10⁻⁶ cm/s. The same compound showed a GI50 at 72 h in series [5] of 11 to 11.5 µM.

In [1], `Cc1cc(OCCCc2c(C(=O)Nc3ccc(C(=O)O)cc3)[nH]c3c(-c4c(C)nn(C)c4C)c(Cl)ccc23)cc(C)c1Cl` yielded a Papp of 1.2 ×10⁻⁶ cm/s.

`Cc1cc(OCCCc2c(C(=O)Nc3cc(C(=O)O)ccn3)[nH]c3c(-c4c(C)nn(C)c4C)c(Cl)ccc23)cc(C)c1Cl`: the Papp in series [1] was less than 3.3 ×10⁻⁶ cm/s.

With `Cc1cc(OCCCc2c(C(=O)NCc3cccc(C(=O)O)c3)[nH]c3c(-c4c(C)nn(C)c4C)c(Cl)ccc23)cc(C)c1Cl`, the Papp in series [1] is less than 7.6 ×10⁻⁶ cm/s.

`Cc1cc(OCCCc2c3n(c4c(-c5c(C)nn(C)c5C)c(Cl)ccc24)CCCN(c2cccc4c(C(=O)O)cccc24)C3=O)cc(C)c1Cl`: the Ki in series [2] was determined as 11 µM; in [3], 0.25 µM. The same compound came in with a GI50 in series [4] of 1 µM. Further, the Papp in series [1] was 4.4 ×10⁻⁶ cm/s. The compound also returned a concentration for 50% growth inhibition (GI50) at 72 h in [5] of 5.7 µM.

For `Cc1cc(OCCCc2c(C(=O)NCc3ccc(C(=O)O)o3)[nH]c3ccccc23)cc(C)c1Cl`, the affinity in [7] corresponds to a Ki of 0.069 µM.

On to `COC(=O)CNC(=O)c1[nH]c2ccccc2c1CCCOc1cc(C)c(Cl)c(C)c1`, for which, in [7], the Ki was found to be 3.2 µM.

As for `Cc1cc(OCCCc2c(C(=O)Nc3ccc(C(=O)O)cn3)[nH]c3c(-c4c(C)nn(C)c4C)c(Cl)ccc23)cc(C)c1Cl`, the Papp in [1] was less than 2.3 ×10⁻⁶ cm/s.

On to `Cc1cc(OCCCc2c3n(c4c(-c5c(C)nn(C)c5C)c(Cl)ccc24)CCCN(c2cn(C)c4cc(C(=O)O)ccc24)C3=O)cc(C)c1Cl`, for which the values for the Ki in series [2] and in series [3] were more than 36 µM and 0.53 µM, respectively. In series [4], this compound came in with a GI50 of 0.33 µM. Also, it took 5.8 µM to inhibit growth in series [5] by half (GI50 at 72 h).

Compound `Cc1cc(OCCCc2c3n(c4c(-c5c(C)nn(C)c5C)cc(Cl)cc24)CCCN(c2cc(C(=O)O)cc4c2ccn4C)C3=O)cc(C)c1Cl` gave a Ki in series [7] of 0.13 µM. The GI50 in [4] came out at 10 µM; in series [8], 9.1 µM; in series [9], 8.9 µM; in [10], 7.7 µM; in series [11], 12 µM. For the same compound, the GI50 at 72 h in series [5] worked out at 10 µM.

As for `Cc1cc(OCCCc2c3n(c4c(-c5c(C)nn(C)c5C)c(Cl)ccc24)CCCN(c2ccc(C(=O)O)c4ccn(C)c24)C3=O)cc(C)c1Cl`, the Ki in series [2] was more than 36 µM; in series [3] it was 0.44 µM. This compound also had a GI50 in series [4] of 5.7 µM. In series [1], this compound gave a Papp of 4.8 ×10⁻⁶ cm/s. For the same compound, the GI50 at 72 h in series [5] is more than 12.5 µM.

With `Cc1cc(OCCCc2c(C(=O)NCCC(=O)O)[nH]c3ccccc23)cc(C)c1Cl`, in [7], the affinity, expressed as Ki, was 0.57 µM.

As for `Cc1cc(OCCCc2c3n(c4c(-c5c(C)nn(C)c5C)c(Cl)ccc24)CCCN(Cc2cccc(C(=O)O)c2)C3=O)cc(C)c1Cl`, in [1], the apparent permeability (Papp) came to 143 ×10⁻⁶ cm/s.

Turning to `Cc1cc(OCCCc2c(C(=O)Nc3cccc(C(=O)O)n3)[nH]c3c(-c4c(C)nn(C)c4C)c(Cl)ccc23)cc(C)c1Cl`, the Papp in series [1] was less than 1.6 ×10⁻⁶ cm/s.

Turning to `Cc1cc(OCCCc2c3n(c4c(-c5c(C)nn(C)c5C)c(Cl)ccc24)CCCN(c2ccc(C(=O)O)c4cccnc24)C3=O)cc(C)c1Cl`, the figures for the Ki in [2] and in series [3] were more than 36 µM and 0.49 µM, respectively. In series [4], this compound yielded a GI50 of 3.3 µM. Further, the Papp in series [1] worked out at 122 ×10⁻⁶ cm/s. In addition, growth in [5] was halved (GI50 at 72 h) at 6.2 µM.
